The values that follow come from ChEMBL document CHEMBL5236653, “Dual functional antioxidant and butyrylcholinesterase inhibitors for the treatment of Alzheimer's disease: Design, synthesis and evaluation of novel melatonin-alkylbenzylamine hybrids” (Bioorg Med Chem, 2023).

For orientation: IC50 means the concentration that gives 50% inhibition. Low values mean greater potency, high ones weaker potency. One may read the inhibition as the relative decrease from the control value, in per cent. Read a low inhibition as little suppression. A word on the Papp: it is a coefficient for how fast a substance crosses the barrier. A higher Papp goes with fast passage.

Sequence of Cholinesterase (Equus caballus, UniProt P81908) (P81908 whole entry): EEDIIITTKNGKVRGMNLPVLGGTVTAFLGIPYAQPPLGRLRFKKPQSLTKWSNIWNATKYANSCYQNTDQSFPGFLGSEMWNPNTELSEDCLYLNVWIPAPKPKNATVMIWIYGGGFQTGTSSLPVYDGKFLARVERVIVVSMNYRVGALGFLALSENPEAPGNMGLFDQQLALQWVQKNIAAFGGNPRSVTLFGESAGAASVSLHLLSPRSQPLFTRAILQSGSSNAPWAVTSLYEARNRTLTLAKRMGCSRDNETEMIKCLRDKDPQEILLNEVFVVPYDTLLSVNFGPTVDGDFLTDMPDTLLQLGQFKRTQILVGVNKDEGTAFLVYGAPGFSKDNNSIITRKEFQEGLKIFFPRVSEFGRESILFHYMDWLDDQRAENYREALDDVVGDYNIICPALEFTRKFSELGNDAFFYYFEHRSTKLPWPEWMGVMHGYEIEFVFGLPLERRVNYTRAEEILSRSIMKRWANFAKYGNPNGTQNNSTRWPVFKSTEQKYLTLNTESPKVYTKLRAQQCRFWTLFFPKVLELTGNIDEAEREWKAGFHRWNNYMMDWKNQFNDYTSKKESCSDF

The target of one data set is Acetylcholinesterase (Electrophorus electricus, UniProt O42275). The data set is described as follows: Inhibition of electric eel AChE using ATCI and BTCI as substrate preincubated for 5 mins followed by substrate addition and measured after 3 mins by DTNB-reagent based Ellman's method.
Sequence of Acetylcholinesterase (Electrophorus electricus, UniProt O42275) (O42275 whole entry): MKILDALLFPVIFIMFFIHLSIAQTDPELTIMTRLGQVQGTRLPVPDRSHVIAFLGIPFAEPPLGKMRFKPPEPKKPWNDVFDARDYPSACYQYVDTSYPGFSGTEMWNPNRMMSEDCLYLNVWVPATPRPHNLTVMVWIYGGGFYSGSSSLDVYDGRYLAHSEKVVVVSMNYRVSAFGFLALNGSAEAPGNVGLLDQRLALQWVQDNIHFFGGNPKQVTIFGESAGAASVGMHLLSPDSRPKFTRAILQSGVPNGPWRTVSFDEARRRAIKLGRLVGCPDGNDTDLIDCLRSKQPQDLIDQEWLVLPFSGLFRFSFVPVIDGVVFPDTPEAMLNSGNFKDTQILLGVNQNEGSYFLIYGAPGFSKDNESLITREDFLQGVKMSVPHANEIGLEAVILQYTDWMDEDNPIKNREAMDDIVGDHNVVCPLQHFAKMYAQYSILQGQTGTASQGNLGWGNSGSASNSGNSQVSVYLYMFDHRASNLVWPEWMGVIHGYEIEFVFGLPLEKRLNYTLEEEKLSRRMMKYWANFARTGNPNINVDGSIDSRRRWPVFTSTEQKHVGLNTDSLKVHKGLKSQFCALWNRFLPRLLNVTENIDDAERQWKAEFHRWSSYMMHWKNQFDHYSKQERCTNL
Details: not given
A general note: Ellman's reagent forms a yellow product with free thiols.
For `COc1ccc(CN(C)CCCCCCCCCCCCn2cc(C=O)c3cc(OC)ccc32)cc1`, the IC50 was found to be 79.9 µM.

`COc1ccc2c(c1)c(C=O)cn2CCCCCCCCCCCCN(C)Cc1cccc(O)c1` displayed an IC50 of 27.6 µM.

On to `COc1ccc2c(c1)c(C=O)cn2CCCCCCCN(C)Cc1ccc(O)cc1`, for which 1.43 µM corresponded to half-maximal inhibition (IC50).

In the case of `CCN(CCCCCCCCCCCCn1cc(C=O)c2cc(OC)ccc21)Cc1cccc(O)c1`, the IC50 was 10.5 µM.

In the case of `COc1ccc2c(c1)c(C=O)cn2CCCCCN(C)Cc1cccc(O)c1`, the IC50 worked out at 7.13 µM.

As for `COc1ccc2c(c1)c(C=O)cn2CCCCCCCCCCN(C)Cc1cccc(O)c1`, the midpoint of inhibition, the IC50, lay at 3.1 µM.

Turning to `COc1cccc(CN(C)CCCCCCCCCCCCn2cc(C=O)c3cc(OC)ccc32)c1`, half-maximal inhibition (IC50) required 69.1 µM.

Compound `COc1ccc2c(c1)c(C=O)cn2CCCCCCCCCCCCCCN(C)Cc1cccc(O)c1` gave an IC50 of 31.6 µM.

`COc1ccc2c(c1)c(C=O)cn2CCCCCCN(C)Cc1cccc(O)c1`: the IC50 was 0.81 µM.

`COc1ccc2c(c1)c(C=O)cn2CCCCCCCN(C)Cc1cccc(O)c1` came in with an IC50 of 1.39 µM.

As to `COc1ccc2c(c1)c(C=O)cn2CCCCCCCCCCCCN(C)Cc1ccc(O)cc1`, the IC50 came out at 33.8 µM.

Compound `COc1ccc2c(c1)c(C=O)cn2CCCCN(C)Cc1ccc(O)cc1` came in with an IC50 of 65.2 µM.

Regarding `COc1ccc2c(c1)c(C=O)cn2CCCCCCN(C)Cc1ccc(O)cc1`, the midpoint of inhibition, the IC50, lay at 0.54 µM.

Another data set concerns the target Cholinesterase (Equus caballus, UniProt P81908). The data set is described as follows: Inhibition of equine serum BuChE using ATCI and BTCI as substrate preincubated for 5 mins followed by substrate addition and measured after 3 mins by DTNB-reagent based Ellman's method.
Details: not given
The data set is classed as cell-free.
On to `COc1ccc(CN(C)CCCCCCCCCCCCn2cc(C=O)c3cc(OC)ccc32)cc1`, for which the midpoint of inhibition, the IC50, lay at 5.49 µM.

`COc1ccc2c(c1)c(C=O)cn2CCCCCCCCCCCCN(C)Cc1cccc(O)c1` had an IC50 of 0.31 µM.

As to `COc1ccc2c(c1)c(C=O)cn2CCCCCCCN(C)Cc1ccc(O)cc1`, the IC50 stood at 2.1 µM.

As for `CCN(CCCCCCCCCCCCn1cc(C=O)c2cc(OC)ccc21)Cc1cccc(O)c1`, the midpoint of inhibition, the IC50, lay at 0.19 µM.

`COc1ccc2c(c1)c(C=O)cn2CCCCCN(C)Cc1cccc(O)c1`: it took 45.4 µM to reach half-maximal inhibition (IC50).

For the compound `COc1ccc2c(c1)c(C=O)cn2CCCCCCCCCCN(C)Cc1cccc(O)c1`, the midpoint of inhibition, the IC50, lay at 0.61 µM.

For `COc1cccc(CN(C)CCCCCCCCCCCCn2cc(C=O)c3cc(OC)ccc32)c1`, the IC50 was 0.43 µM.

As for `COc1ccc2c(c1)c(C=O)cn2CCCCCCCCCCCCCCN(C)Cc1cccc(O)c1`, inhibition was half-maximal at 8.76 µM (IC50).

`COc1ccc2c(c1)c(C=O)cn2CCCCCCN(C)Cc1cccc(O)c1` returned an IC50 of 16.2 µM.

`COc1ccc2c(c1)c(C=O)cn2CCCCCCCN(C)Cc1cccc(O)c1` gave an IC50 of 5.47 µM.

Regarding `COc1ccc2c(c1)c(C=O)cn2CCCCCCCCCCCCN(C)Cc1ccc(O)cc1`, the IC50 turned out to be 1.04 µM.

`COc1ccc2c(c1)c(C=O)cn2CCCCN(C)Cc1ccc(O)cc1` had an IC50 of 20.1 µM.

Turning to `COc1ccc2c(c1)c(C=O)cn2CCCCCCN(C)Cc1ccc(O)cc1`, the IC50 was 7.2 µM.

Test system in the next data set: not listed separately
The data set is described as follows: Antioxidant activity assessed as trolox equivalent of ORAC radical scavenging activity by ORAC assay. The data set is classed as functional.
Details: not given
As to `COc1ccc(CN(C)CCCCCCCCCCCCn2cc(C=O)c3cc(OC)ccc32)cc1`, the Activity is less than 0.01 equiv.

For the compound `COc1ccc2c(c1)c(C=O)cn2CCCCCCCCCCCCN(C)Cc1cccc(O)c1`, the Activity is less than 0.01 equiv.

On to `COc1ccc2c(c1)c(C=O)cn2CCCCCCCN(C)Cc1ccc(O)cc1`, for which the Activity was 1.55 equiv.

On to `CCN(CCCCCCCCCCCCn1cc(C=O)c2cc(OC)ccc21)Cc1cccc(O)c1`, for which the Activity came out at 0.13 equiv.

As to `COc1ccc2c(c1)c(C=O)cn2CCCCCN(C)Cc1cccc(O)c1`, the Activity is 0.2 equiv.

For the compound `COc1ccc2c(c1)c(C=O)cn2CCCCCCCCCCN(C)Cc1cccc(O)c1`, the Activity was less than 0.01 equiv.

Turning to `COc1cccc(CN(C)CCCCCCCCCCCCn2cc(C=O)c3cc(OC)ccc32)c1`, the Activity was less than 0.01 equiv.

On to `COc1ccc2c(c1)c(C=O)cn2CCCCCCCCCCCCCCN(C)Cc1cccc(O)c1`, for which the Activity is less than 0.01 equiv.

In the case of `COc1ccc2c(c1)c(C=O)cn2CCCCCCN(C)Cc1cccc(O)c1`, the Activity was 0.82 equiv.

In the case of `COc1ccc2c(c1)c(C=O)cn2CCCCCCCN(C)Cc1cccc(O)c1`, the Activity was less than 0.01 equiv.

For the compound `COc1ccc2c(c1)c(C=O)cn2CCCCCCCCCCCCN(C)Cc1ccc(O)cc1`, the Activity is less than 0.01 equiv.

Take `COc1ccc2c(c1)c(C=O)cn2CCCCN(C)Cc1ccc(O)cc1`: the Activity came to 0.91 equiv.

For the compound `COc1ccc2c(c1)c(C=O)cn2CCCCCCN(C)Cc1ccc(O)cc1`, the Activity was 0.61 equiv.

The target of the next data set is T1, Acetylcholinesterase (Homo sapiens, UniProt P22303). The data set is described as follows: Inhibition of human erythrocyte AChE using ATCI and BTCI as substrate preincubated for 5 mins followed by substrate addition and measured after 3 mins by DTNB-reagent based Ellman's method.
T1 sequence (P22303 whole entry): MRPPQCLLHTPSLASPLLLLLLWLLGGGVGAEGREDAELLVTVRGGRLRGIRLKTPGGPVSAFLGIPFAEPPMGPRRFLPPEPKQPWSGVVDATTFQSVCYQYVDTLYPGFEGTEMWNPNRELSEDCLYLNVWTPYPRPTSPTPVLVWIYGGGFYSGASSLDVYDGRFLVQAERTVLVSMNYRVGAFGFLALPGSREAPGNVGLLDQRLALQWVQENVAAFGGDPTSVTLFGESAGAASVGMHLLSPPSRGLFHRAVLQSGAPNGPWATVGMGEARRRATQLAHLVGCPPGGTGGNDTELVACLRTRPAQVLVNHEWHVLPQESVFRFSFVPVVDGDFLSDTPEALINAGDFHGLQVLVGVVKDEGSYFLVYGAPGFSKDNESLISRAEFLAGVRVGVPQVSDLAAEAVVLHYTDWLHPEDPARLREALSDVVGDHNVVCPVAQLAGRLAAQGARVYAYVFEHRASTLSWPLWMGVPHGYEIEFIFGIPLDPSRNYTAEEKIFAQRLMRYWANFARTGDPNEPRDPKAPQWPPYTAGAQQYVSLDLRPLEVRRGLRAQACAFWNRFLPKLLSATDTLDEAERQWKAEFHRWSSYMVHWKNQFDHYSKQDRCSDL
Details: not given
Regarding `COc1ccc2c(c1)c(C=O)cn2CCCCCCCCCCCCN(C)Cc1cccc(O)c1`, it took 76.5 µM to reach half-maximal inhibition (IC50).

Turning to `COc1ccc2c(c1)c(C=O)cn2CCCCCCCN(C)Cc1ccc(O)cc1`, the IC50 was found to be 1.61 µM.

In the case of `CCN(CCCCCCCCCCCCn1cc(C=O)c2cc(OC)ccc21)Cc1cccc(O)c1`, the IC50 is 42.5 µM.

`COc1ccc2c(c1)c(C=O)cn2CCCCCCCCCCN(C)Cc1cccc(O)c1` showed an IC50 of 4.52 µM.

`COc1ccc2c(c1)c(C=O)cn2CCCCCCCN(C)Cc1cccc(O)c1`: half-maximal inhibition (IC50) required 5.54 µM.

Consider `COc1ccc2c(c1)c(C=O)cn2CCCCCCCCCCCCN(C)Cc1ccc(O)cc1`, for which 60.6 µM corresponded to half-maximal inhibition (IC50).

The target in a further data set is Cholinesterase (Homo sapiens, UniProt P06276). The data set is described as follows: Inhibition of human serum BuChE using ATCI and BTCI as substrate preincubated for 5 mins followed by substrate addition and measured after 3 mins by DTNB-reagent based Ellman's method. Type of data set: cell-free.
Sequence of Cholinesterase (Homo sapiens, UniProt P06276) (P06276 whole entry): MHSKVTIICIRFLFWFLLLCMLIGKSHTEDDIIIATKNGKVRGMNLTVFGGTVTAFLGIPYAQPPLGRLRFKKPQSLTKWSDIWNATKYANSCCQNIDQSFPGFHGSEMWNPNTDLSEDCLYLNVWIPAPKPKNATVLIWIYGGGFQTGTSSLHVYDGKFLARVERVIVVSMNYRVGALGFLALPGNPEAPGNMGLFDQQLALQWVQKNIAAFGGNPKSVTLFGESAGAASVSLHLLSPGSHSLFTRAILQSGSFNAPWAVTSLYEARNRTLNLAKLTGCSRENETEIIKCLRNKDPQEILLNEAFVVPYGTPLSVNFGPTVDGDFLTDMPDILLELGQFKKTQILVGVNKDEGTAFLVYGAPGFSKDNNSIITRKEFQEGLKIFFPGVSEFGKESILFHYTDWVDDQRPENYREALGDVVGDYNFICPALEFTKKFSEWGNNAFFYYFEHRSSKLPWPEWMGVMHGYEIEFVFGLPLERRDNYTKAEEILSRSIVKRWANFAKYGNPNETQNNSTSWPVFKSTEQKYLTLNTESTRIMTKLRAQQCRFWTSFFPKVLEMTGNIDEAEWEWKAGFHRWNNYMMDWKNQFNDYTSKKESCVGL
Details: not given
In turn, `COc1ccc(CN(C)CCCCCCCCCCCCn2cc(C=O)c3cc(OC)ccc32)cc1` had an IC50 of 0.43 µM.

As to `COc1ccc2c(c1)c(C=O)cn2CCCCCCCCCCCCN(C)Cc1cccc(O)c1`, the IC50 was 0.15 µM.

`COc1ccc2c(c1)c(C=O)cn2CCCCCCCN(C)Cc1ccc(O)cc1`: the IC50 amounted to 0.89 µM.

For the compound `CCN(CCCCCCCCCCCCn1cc(C=O)c2cc(OC)ccc21)Cc1cccc(O)c1`, the IC50 turned out to be 0.88 µM.

`COc1ccc2c(c1)c(C=O)cn2CCCCCCCCCCN(C)Cc1cccc(O)c1` showed an IC50 of 0.19 µM.

`COc1cccc(CN(C)CCCCCCCCCCCCn2cc(C=O)c3cc(OC)ccc32)c1`: the IC50 was 5.49 µM.

Regarding `COc1ccc2c(c1)c(C=O)cn2CCCCCCCN(C)Cc1cccc(O)c1`, the IC50 turned out to be 4.89 µM.

`COc1ccc2c(c1)c(C=O)cn2CCCCCCCCCCCCN(C)Cc1ccc(O)cc1` came in with an IC50 of 0.26 µM.

In another data set the target is T1, Acetylcholinesterase. The data set is described as follows: Inhibition of human erythrocyte AChE at 100 uM using ATCI and BTCI as substrate preincubated for 5 mins followed by substrate addition and measured after 3 mins by DTNB-reagent based Ellman's method relative to control. Particulars: time 8.0 min.
As to `COc1ccc(CN(C)CCCCCCCCCCCCn2cc(C=O)c3cc(OC)ccc32)cc1`, the inhibition is 46.1%.

Regarding `COc1cccc(CN(C)CCCCCCCCCCCCn2cc(C=O)c3cc(OC)ccc32)c1`, the inhibition was determined as 46.1%.

Test system in the next data set: not listed separately
The data set is described as follows: Selectivity index, ratio of IC50 for inhibition of human erythrocyte AChE to IC50 for inhibition of human serum BuChE.
Details: not given
Regarding `COc1ccc(CN(C)CCCCCCCCCCCCn2cc(C=O)c3cc(OC)ccc32)cc1`, the Ratio IC50 stood at 233.

In the case of `COc1ccc2c(c1)c(C=O)cn2CCCCCCCCCCCCN(C)Cc1cccc(O)c1`, the Ratio IC50 was 510.

As to `COc1ccc2c(c1)c(C=O)cn2CCCCCCCN(C)Cc1ccc(O)cc1`, the Ratio IC50 turned out to be 1.81.

For `CCN(CCCCCCCCCCCCn1cc(C=O)c2cc(OC)ccc21)Cc1cccc(O)c1`, the Ratio IC50 was determined as 48.3.

With `COc1ccc2c(c1)c(C=O)cn2CCCCCCCCCCN(C)Cc1cccc(O)c1`, the Ratio IC50 came to 23.8.

As for `COc1ccc2c(c1)c(C=O)cn2CCCCCCCN(C)Cc1cccc(O)c1`, the Ratio IC50 was 1.13.

Test system in another data set: not listed separately
The data set is described as follows: Selectivity index, ratio of IC50 for inhibition of human erythrocyte AChE to inhibition of human serum BuChE.
Details: not given
As to `COc1cccc(CN(C)CCCCCCCCCCCCn2cc(C=O)c3cc(OC)ccc32)c1`, the Selectivity Index is more than 200.

For `COc1ccc2c(c1)c(C=O)cn2CCCCCCCCCCCCN(C)Cc1ccc(O)cc1`, the Selectivity Index is more than 100.

Test system in a further data set: not listed separately
The data set is described as follows: in vitro. To be noted: PAMPA. (In general: In PAMPA a lipid-coated filter parts donor from acceptor wells.)
Description: Permeability coefficient of the compound across blood brain barrier incubated for 18 hrs by PAMPA assay
`COc1ccc(CN(C)CCCCCCCCCCCCn2cc(C=O)c3cc(OC)ccc32)cc1` displayed a Papp at 18 h of 4.09 ×10⁻⁶ cm/s.

In the case of `COc1ccc2c(c1)c(C=O)cn2CCCCCCCCCCCCN(C)Cc1cccc(O)c1`, the Papp at 18 h was 4.71 ×10⁻⁶ cm/s.

In turn, `COc1ccc2c(c1)c(C=O)cn2CCCCCCCN(C)Cc1ccc(O)cc1` gave a Papp at 18 h of 4.19 ×10⁻⁶ cm/s.

As for `CCN(CCCCCCCCCCCCn1cc(C=O)c2cc(OC)ccc21)Cc1cccc(O)c1`, the Papp at 18 h was determined as 8.18 ×10⁻⁶ cm/s.

In the case of `COc1ccc2c(c1)c(C=O)cn2CCCCCCCCCCN(C)Cc1cccc(O)c1`, the Papp at 18 h amounted to 5.76 ×10⁻⁶ cm/s.

Compound `COc1cccc(CN(C)CCCCCCCCCCCCn2cc(C=O)c3cc(OC)ccc32)c1` returned a Papp at 18 h of 1.82 ×10⁻⁶ cm/s.

With `COc1ccc2c(c1)c(C=O)cn2CCCCCCCN(C)Cc1cccc(O)c1`, the Papp at 18 h was 4.78 ×10⁻⁶ cm/s.

The compound `COc1ccc2c(c1)c(C=O)cn2CCCCCCCCCCCCN(C)Cc1ccc(O)cc1` came in with a Papp at 18 h of 10 ×10⁻⁶ cm/s.
